Oligonucleotides are written 5' to 3', each unit as a sugar letter and its base; * is a phosphorothioate linkage, no mark a phosphodiester; rarer units and linkages stand in square brackets, end groups in braces. Plain capitals give the bases only. d = 2'-deoxy (DNA); r = 2'-OH (RNA)
Key:
[1] = tested on: wild type murine macrophages; assay: Wild type murine macrophages in the presence of IFN-γ, IL-12 p40 ELISA; assay type: cell-based, mouse; conditions: FIG. 6 Panel A, 12 hours, RNA with DOTAP
Procedure: The following murine cells were isolated and incubated with various RNAs and other known TLR ligands in order to assess species-, cell type-, and signaling pathway-specificity: wild type macrophages in the presence of IFN-γ; MyD88-deficient macrophages in the presence of IFN-γ; J774 (mouse macrophage cell line); and RAW 264.7 (mouse macrophage cell line, e.g., ATCC TIB-71). Murine bone macrophages were generated from wild type or MyD88-deficient C57BL/6 mice by culturing bone marrow cells with 50 ng/ml M-CSF for 5 days. Cells were seeded at 25,000 cells/well and treated with 20 ng/ml IFN-γ for 16 hours. The murine macrophage cell lines RAW and J774 were seeded at 10,000 cells/well.
The following test and control agents were examined: R-848 (2 μg/ml), ODN 1668 (CpG DNA; 5′-[…]-3′; SEQ ID NO:7); LPS (1 μg/ml); poly IC (50 μg/ml); Pam3Cys (5 μg/ml); Ionomycin/TPA; the following RNA molecules, each with (“+Lipo”) and without DOTAP (10 μg/200 μl culture well): GUGUUUAC alone (RNA1); GUAGGCAC alone (RNA2); GUGUUUAC in combination with GUAGGCAC (RNA1/2); […] (RNA6; SEQ ID NO:8); […] (RNA9; SEQ ID NO:9); and the following DNA molecules, corresponding to RNA1, RNA2, and RNA1/2: GTGTTTAC alone (DNA1); GTAGGCAC alone (DNA2); and GTGTTTAC in combination with GTAGGCAC (DNA1/2). These RNA and DNA oligonucleotides each contained a phosphorothioate linkage between the penultimate and 3′ terminal nucleoside. RNA6 and RNA9 each contained in addition a phosphorothioate linkage between the penultimate and 5′ terminal nucleoside. RNA6 corresponds to a ribosomal RNA stem loop derived from Listeria monocytogenes. RNA9 corresponds to a stem loop derived from human immunodeficiency virus (HIV, an RNA retrovirus). The cells were cultured for 12 hours and supernatants were harvested. Murine IL-12 p40, IL-6, and TNF-α were measured by ELISA using matched antibody pairs from BD-Pharmingen according to the manufacturer's protocol.

human TLR7 = biological target: T1, human TLR7 (Homo sapiens, UniProt Q9NYK1); assay: NF-κB luciferase reporter in 293 HEK cells transfected with human TLR7; assay type: cell-based; conditions: for human TLR7 response to modified guanosine ribonucleosides: FIG. 18
T1 construct: All full-length TLR fragments were cloned into pGEM-T Easy vector; expressed in transfected cells; host or cells: 293 HEK cells (ATCC), transient electroporation with pcDNA3.1(-) TLR expression plasmid
T1 sequence (Q9NYK1 27-1049): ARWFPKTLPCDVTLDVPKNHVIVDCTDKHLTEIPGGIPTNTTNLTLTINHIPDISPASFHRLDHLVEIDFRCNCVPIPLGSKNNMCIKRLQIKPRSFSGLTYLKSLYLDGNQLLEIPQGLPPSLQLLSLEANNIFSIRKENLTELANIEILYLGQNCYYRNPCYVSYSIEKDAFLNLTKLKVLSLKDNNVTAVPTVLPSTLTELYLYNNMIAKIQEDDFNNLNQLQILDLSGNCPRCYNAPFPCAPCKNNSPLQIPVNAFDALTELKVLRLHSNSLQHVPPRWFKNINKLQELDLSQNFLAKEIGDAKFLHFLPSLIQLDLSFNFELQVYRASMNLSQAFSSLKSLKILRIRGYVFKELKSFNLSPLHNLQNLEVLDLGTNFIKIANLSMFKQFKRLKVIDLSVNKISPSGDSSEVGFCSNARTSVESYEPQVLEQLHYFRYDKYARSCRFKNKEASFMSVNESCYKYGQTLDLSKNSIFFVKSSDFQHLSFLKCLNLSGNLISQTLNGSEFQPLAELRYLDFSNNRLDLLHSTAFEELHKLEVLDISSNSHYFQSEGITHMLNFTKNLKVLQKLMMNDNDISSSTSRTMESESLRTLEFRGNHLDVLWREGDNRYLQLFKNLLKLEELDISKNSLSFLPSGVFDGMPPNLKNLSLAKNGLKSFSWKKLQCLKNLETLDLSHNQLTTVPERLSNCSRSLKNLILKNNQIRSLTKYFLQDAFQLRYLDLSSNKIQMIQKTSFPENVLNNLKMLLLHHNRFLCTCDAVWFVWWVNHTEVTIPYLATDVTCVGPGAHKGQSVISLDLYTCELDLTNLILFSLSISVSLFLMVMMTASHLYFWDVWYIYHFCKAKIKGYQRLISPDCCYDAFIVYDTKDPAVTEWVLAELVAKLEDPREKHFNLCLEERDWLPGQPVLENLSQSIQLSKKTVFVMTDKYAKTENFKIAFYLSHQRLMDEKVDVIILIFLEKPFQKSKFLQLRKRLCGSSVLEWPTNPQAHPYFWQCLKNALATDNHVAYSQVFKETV
Procedure: FIG. 12 depicts the responsiveness of human TLR7 and human TLR8 to ribonucleosides. It was determined that the response by human PBMC to RNA or RVC was mediated by TLR7 or TLR8 and further that the response could be driven by ribonucleosides only. Human 293 cells were either mock-transfected or transfected with human TLR7 or human TLR8 and monitored for responsiveness to ribonucleosides. The open reading frames of human TLR7 (hTLR7) and human TLR8 (hTLR8) were amplified by PCR from a cDNA library of human PBMC using the following primers pairs: for TLR7, 5′-[…]-3′ (SEQ ID NO:15) and 5′-[…]-3′ (SEQ ID NO:16); and for TLR8, 5′-[…]-3′ (SEQ ID NO:17) and 5′-[…]-3′ (SEQ ID NO:18). The sequence information for primer selection was obtained from Genbank accession numbers AF240467 and AF245703. All full-length TLR fragments were cloned into pGEM-T Easy vector (Promega, Mannheim, Germany), excised with NotI, cloned into the expression vector pcDNA 3.1(−) (Invitrogen, Karlsruhe, Germany) and sequenced. Sequences of the coding region of hTLR7 and hTLR8 correspond to the accession numbers AF240467 (SEQ ID NO:25) and AF245703, respectively (SEQ ID NO:29).
For monitoring transient NF-κB activation, 3×10^6 293 HEK cells (ATCC, VA, USA) were electroporated at 200 volt and 960 μF with 1 μg TLR expression plasmid, 20 ng NF-κB luciferase reporter-plasmid and 14 μg of pcDNA3.1(−) plasmid as carrier in 400 μl RPMI medium supplemented with 25% fetal bovine serum (FCS). Cells were seeded at 10^5 cells per well and after over night culture stimulated with R-848 (denoted in FIG. 12 as X; commercially synthesized by GLSynthesis Inc., Worcester, Mass., USA), RVCs or ribonucleosides for a further 7 hours. Stimulated cells were lysed using reporter lysis buffer (Promega, Mannheim, Germany), and lysate was assayed for luciferase activity using a Berthold luminometer (Wildbad, Germany).

human PBMC [2] = assay: Human PBMC TNF-α secretion, ELISA; assay type: cell-based; conditions: for TNF-α max / EC50: Table 4, DNA:RNA conjugates, human PBMC overnight, including DOTAP; for EC50: read-out: TNF-α EC50
Procedure: Human peripheral blood mononuclear cells (PBMCs) were isolated from healthy donors, plated at 3×10^5 cells/well, stimulated in vitro with various test and control immunostimulatory agents for 16 hours, and then analyzed by enzyme-linked immunosorbent assay (ELISA) using matched antibody pairs from BD-Pharmingen for secreted cytokines IL-12 p40 and TNF-α, performed according to the manufacturer's protocol. Also included were certain negative controls, including medium alone and DOTAP (10 μg/200 μl culture well; “Liposomes”) alone. The control immunostimulatory agents included the imidazoquinolone R-848 (2 μg/ml), lipopolysaccharide (LPS; 1 μg/ml), Pam3Cys (5 μg/ml), poly IC (50 μg/ml), and CpG DNA (50 μg/ml). These are reported ligands for TLR7, TLR4, TLR2, TLR3, and TLR9, respectively. Test immunostimulatory agents included the following RNA molecules, each at 50 μg/ml, with and without DOTAP (10 μg total “with Liposomes” and “without Liposomes”, respectively): GUGUUUAC alone; GUAGGCAC alone; GUGUUUAC in combination with GUAGGCAC; GUAGGA; GAAGGCAC; CUAGGCAC; CUCGGCAC; and CCCCCCCC. These RNA oligonucleotides each contained a phosphorothioate linkage between the penultimate and 3′ terminal nucleoside.
The experiments described in the preceding example were repeated with varied concentrations of RNA oligonucleotides in order to assess the dose-response behavior of human PBMCs to G,U-containing RNA oligonucleotides of the invention. A total of 10, 3 or 1 μg RNA was added to 10 μg DOTAP and then added to the 200 μl culture wells. After 16 hours IL-12 p40 and TNF-α ELISAs were performed as described in Example 1.
In order to investigate the possibility of using cholesteryl ester-modified RNA oligomer in place of RNA oligomer plus cationic lipid, RNA oligomer GUGUGUGU was prepared with (R 1058) and without (R 1006) a 3′ cholesteryl ester modification. These two RNA oligomers with and without DOTAP, were added over a range of concentrations to overnight cultures of human PBMC. Culture supernatants were harvested, and human TNF-α, IL-12 p40, and IFN-α were measured by ELISA using matched antibody pairs from BD-Pharmingen according to the manufacturer's protocol.
(§1) RNA oligomers GUGUGUGU, GUGUGUG, GUGUGU, GUGUG, GUGU, GUG, and GU, with and without DOTAP, were added over a range of concentrations to overnight cultures of human PBMC. Culture supernatants were harvested, and human TNF-α, IL-12 p40, and IFN-α were measured by ELISA using matched antibody pairs from BD-Pharmingen according to the manufacturer's protocol.
as §1, with “oligomers,” for “oligomers GUGUGUGU, GUGUGUG, GUGUGU, GUGUG, GUGU, GUG, and GU,”
(§2) Human PBMC were cultured overnight in the presence of added DNA:RNA conjugate, with and without DOTAP. Culture supernatants were harvested and human TNF-α, IL-6, IL-12 p40, IP-10, and IFN-α were measured by ELISA using matched antibody pairs from BD-Pharmingen according to the manufacturer's protocol.
Human PBMC were cultured overnight in the presence of various concentrations (1, 3, and 10 μg/ml) of tRNA obtained from wheat germ, bovine, yeast, and E. coli sources, added to the culture medium with and without DOTAP. Culture supernatants were harvested and human TNF-α and IL-12 p40 were measured by ELISA using matched antibody pairs from BD-Pharmingen according to the manufacturer's protocol. […] In addition, E. coli tRNA at 3 and 10 μg/ml induced minor amounts of both cytokines even without DOTAP. […]
FIG. 10 depicts the responsiveness of human PBMC to stringent response factor (SRF). SRF is produced by rapidly growing bacteria (in this case Listeria monocytogenes) in rich media until their late log phase. The bacteria were pelleted and resuspended in an equal volume of PBS for 24 h. The mixture is centrifuged to remove the bacteria. […]

human PBMC [3] = assay: Human PBMC IP-10 secretion, ELISA; assay type: cell-based; conditions: Table 4, DNA:RNA conjugates; human PBMC overnight; including DOTAP
Procedure: as §2

human PBMC [4] = assay: Human PBMC IL-6 secretion, ELISA; assay type: cell-based; conditions: Table 4, DNA:RNA conjugates; human PBMC overnight; including DOTAP
Procedure: as §2

human TLR7 response to modified guanosine ribonucleosides (human TLR7)	Compound	TNF-α max (human PBMC [2]) [pg/mL]	EC50 (human PBMC [2]) [nM]	EC50 (human PBMC [3]) [nM]	IP-10 max (human PBMC [3]) [pg/mL]	EC50 (human PBMC [4]) [nM]	IL-6 max (human PBMC [4]) [pg/mL]	other results
	5′-TCCATGACGTTCCTGATGCT-3′ (CpG DNA, linkage chemistry not given here, further chemistry not given here) [ODN 1668]							IL-12 p40 secretion by wild type murine macrophages [1]: significant amounts
responded mildly	Nc1nc2c(nc(Br)n2[C@@H]2O[C@H](CO)[C@@H](O)[C@H]2O)c(=O)[nH]1 [8-bromo-guanosine, reference compound]							
responded mildly	Nc1nc2c(ncn2[C@H]2C[C@H](O)[C@@H](CO)O2)c(=O)[nH]1 [deoxy form of guanosine]							
responsive	Nc1nc2c(ncn2[C@@H]2O[C@H](CO)[C@@H](O)[C@H]2O)c(=O)[nH]1 [guanosine]							response of TLR7 transfectants (NF-κB luciferase) (human TLR7; FIG. 12, transient transfectants, 7 hours stimulation): responded; responsiveness of TLR7 to ribonucleosides and mixtures of two (human TLR7; FIG. 13): responded best; stimulation of PBMC to produce TNF (human PBMC [2]; Example 14, in the absence of vanadate): effective
	G*U*G*U*G*U*G*U*dT*dT*dT*dT*dT*dT (rG*rU*rG*rU*rG*rU*rG*rU*dT*dT*dT*dT*dT*dT) [R 1062]	80000	300	100	400	400	28000	
	dG*dG*dG*dG_dG_G*U*G*U*G*U*G*U (dG*dG*dG*dGdGrG*rU*rG*rU*rG*rU*rG*rU) [R 1061]	20000	4300	1100	180	> 20000	10000	
	dT*dT*dT*dT*dT*G*U*G*U*G*U*G*U (dT*dT*dT*dT*dT*rG*rU*rG*rU*rG*rU*rG*rU) [R 1063]	60000	300	100	250	800	28000	

Source: patent publication US9428536B2, “Immunostimulatory G, U-containing oligoribonucleotides” (Zoetis Belgium SA, priority 2002, dated 2016)
